US11976059B2 (KOREA RESEARCH INSTITUTE OF CHEMICAL TECHNOLOGY, priority 2018, dated 2024)

These compounds were tested against EGFR L858R/T790M/C797S mutant enzyme (Homo sapiens (Human), UniProt P00533, C797S/L858R/T790M) (assay: EGFR mutant enzyme inhibition, HTRF system (Cisbio)). Settings: ATP 1 mM, 37° C. for 2 hours.
Format: biochemical
Method: In order to evaluate the inhibitory activity of the compound represented by formula 1 according to the present invention against EGFR mutation, the following experiment was performed.
The activity of the compound of the present invention against EGFR mutant enzyme was measured using the HTRF system of Cisbio Co. As an EGFR L858R/T790M/C797S mutant enzyme, a protein provided by SignalChem was purchased and used as an enzyme source.
The composition of the assay buffer used for the activity measurement was as follows: 50 mM Tris-HCl (pH 7.5), 100 mM NaCl, 7.5 mM MgCl2, 3 mM KCl, 0.01% Tween 20, 0.1% BSA, and 1 mM DTT. Herein, an enzyme reaction was performed using a peptide substrate labeled with ATP at the concentration of 1 mM and biotin at the concentration of 0.5 μM. The analysis of the EGFR activity inhibitory effect of the compound was performed according to the following analytical reaction recipe.
Component 1: 4 μl of EGFR mutant enzyme
Component 2: 2 μl of compound solution
Component 3: 4 μl of ATP and biotin-labeled peptide mixture
The enzyme reaction was initiated by mixing the component 1 and the component 2 first and then adding the component 3 thereto. After reacting the mixture at 37° C. for 2 hours, 10 μl of a measurement solution consisting of streptavidin-XL665 and europium-labeled anti-phosphotyrosine antibody provided by Cisbio was added to the enzyme reaction solution, followed by reaction at room temperature for 1 hour. Finally, the ratio of the fluorescence values at 615 nm and 665 nm was calculated using Envision equipment of Perkin-Elmer to quantitatively measure the enzyme activity and confirm the inhibitory ability of the compound. The values measured at 7 concentrations of the compound were analyzed using Prism program (version 5.01, Graphpad Software, Inc.), and the IC50 value, an index of the inhibitory ability of the compound, was calculated.

Chain of EGFR L858R/T790M/C797S mutant enzyme (P00533 25-1210 T790M/C797S/L858R): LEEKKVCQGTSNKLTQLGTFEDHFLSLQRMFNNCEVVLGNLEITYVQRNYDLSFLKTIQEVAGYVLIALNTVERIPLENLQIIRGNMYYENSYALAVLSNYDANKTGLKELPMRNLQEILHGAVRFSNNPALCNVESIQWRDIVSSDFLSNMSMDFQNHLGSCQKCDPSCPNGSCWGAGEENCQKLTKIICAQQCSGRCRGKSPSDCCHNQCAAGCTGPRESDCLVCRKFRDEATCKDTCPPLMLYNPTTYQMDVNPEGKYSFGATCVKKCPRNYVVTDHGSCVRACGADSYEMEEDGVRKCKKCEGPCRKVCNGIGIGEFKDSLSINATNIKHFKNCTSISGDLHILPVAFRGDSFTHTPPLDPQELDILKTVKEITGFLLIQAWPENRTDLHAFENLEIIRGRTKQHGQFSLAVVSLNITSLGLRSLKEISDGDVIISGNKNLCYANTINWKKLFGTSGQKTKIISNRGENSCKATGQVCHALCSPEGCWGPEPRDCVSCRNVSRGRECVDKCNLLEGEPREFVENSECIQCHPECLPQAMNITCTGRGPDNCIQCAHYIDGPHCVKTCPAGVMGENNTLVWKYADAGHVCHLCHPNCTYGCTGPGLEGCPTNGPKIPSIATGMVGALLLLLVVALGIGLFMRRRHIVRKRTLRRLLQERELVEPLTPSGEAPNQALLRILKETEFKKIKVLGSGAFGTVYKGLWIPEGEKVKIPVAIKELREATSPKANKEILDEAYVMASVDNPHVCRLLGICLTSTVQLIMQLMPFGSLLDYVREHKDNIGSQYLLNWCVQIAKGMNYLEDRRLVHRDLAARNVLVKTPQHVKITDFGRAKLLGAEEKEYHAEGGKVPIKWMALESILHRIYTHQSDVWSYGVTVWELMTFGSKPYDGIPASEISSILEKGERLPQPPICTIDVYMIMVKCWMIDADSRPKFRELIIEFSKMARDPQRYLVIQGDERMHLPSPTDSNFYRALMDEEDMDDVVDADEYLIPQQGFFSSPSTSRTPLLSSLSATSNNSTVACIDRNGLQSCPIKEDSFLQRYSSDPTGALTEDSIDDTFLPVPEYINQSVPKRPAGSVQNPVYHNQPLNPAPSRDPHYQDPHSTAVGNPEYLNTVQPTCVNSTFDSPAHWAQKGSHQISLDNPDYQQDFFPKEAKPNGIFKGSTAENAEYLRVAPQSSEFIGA

Q: How did the IC50 turn out when `O=C1c2ccccc2CN1[C@@H](c1cc2ccccc2[nH]1)c1cc(F)ccc1O` [Example 23, (R)-2-((5-fluoro-2-hydroxyphenyl)(1H-indole-2-yl)methyl)isoindolin-1-one] was run?
A: 2.4 µM

Q: How did the IC50 turn out when `O=C1c2cc(-c3ccc(N4CCNCC4)cc3)ccc2CN1C(c1nc2ccccc2[nH]1)c1cc(F)ccc1O` (centres unmarked) [Example 10, 2-((1H-benzo[d]imidazole-2-yl)(5-fluoro-2-hydroxyphenyl)methyl)-6-(4-(piperazine-1-yl)phenyl)isoindolin-1-one] was run?
A: 0.099 µM

Q: For `O=C1c2ccccc2CN1C(c1nc2ccc(Cl)nc2[nH]1)c1ccccc1O` (centres unmarked) [Example 6, 2-((5-chloro-3H-imidazo[4,5-b]pyridine-2-yl)(2-hydroxyphenyl)methyl)isoindolin-1-one], which IC50 is on record?
A: > 10 µM

Q: For `CN(C)C1CCN(c2ccc(-c3ccc4c(c3)C(=O)N([C@@H](c3cc5ccccc5[nH]3)c3cc(Cl)ccc3O)C4)cc2)CC1` [Example 62, (R)-2-((5-chloro-2-hydroxyphenyl)(1H-indole-2-yl)methyl)-6-(4-(4-(dimethylamino)piperidine-1-yl)phenyl)-isoindolin-1-one], which IC50 is on record?
A: 2.2 µM

Q: With `O=C1c2cc(-c3ccc(N4CCNCC4)cc3)ccc2CN1[C@@H](c1cc2cccnc2[nH]1)c1cc(Cl)ccc1O` [Example 50, (R)-2-((5-chloro-2-hydroxyphenyl)(1H-pyrrolo[2,3-b]pyridine-2-yl)methyl)-6-(4-(piperazine-4-yl)phenyl)isoindolin-1-one] as the compound, how does the IC50 read?
A: 0.42 µM

Q: With `O=C1c2cc(-c3ccc(-c4ccncc4)cc3)ccc2CN1C(c1nc2ccccc2[nH]1)c1cc(F)ccc1O` (centres unmarked) [Example 41, 2-((1H-benzo[d]imidazole-2-yl)(5-fluoro-2-hydroxyphenyl)methyl)-6-(4-(pyridine-4-yl)phenyl)isoindolin-1-one] as the compound, how does the IC50 read?
A: 0.22 µM

Q: For `CN1CCC(N2CCN(c3ccc(-c4ccc5c(c4)C(=O)N([C@@H](c4cc6ccccc6[nH]4)c4cc(Cl)ccc4O)C5)cc3)CC2)CC1` [Example 66, (R)-2-((5-chloro-2-hydroxyphenyl)(1H-indole-2-yl)methyl)-6-(4-(4-(1-methylpiperidine-4-yl)piperazine-1-yl)phenyl)isoindolin-1-one], which IC50 is on record?
A: 0.41 µM

Q: Which IC50 does the source give for `O=C1c2ccccc2CN1C(c1nc2ccccc2[nH]1)c1cc(F)ccc1O` (centres unmarked) [Example 7, 2-((1H-benzo[d]imidazole-2-yl)(5-fluoro-2-hydroxyphenyl)methyl)isoindolin-1-one] here?
A: 0.7 µM

Q: For `Nc1ccc(-c2ccc3c(c2)C(=O)N([C@@H](c2cc4ccccc4[nH]2)c2cc(F)ccc2O)C3)cc1` [Example 29, (R)-6-(4-aminophenyl)-2-((5-fluoro-2-hydroxyphenyl)(1H-indole-2-yl)methyl)isoindolin-1-one], which IC50 is on record?
A: 0.28 µM

Q: Which IC50 does the source give for `CN1CCN(c2ccc3c(c2)C(=O)N([C@@H](c2cc4ccccc4[nH]2)c2cc(F)ccc2O)C3)CC1` [Example 38, (R)-2-((5-fluoro-2-hydroxyphenyl)(1H-indole-2-yl)methyl)-6-(4-methylpiperazine-1-yl)isoindolin-1-one] here?
A: 7.6 µM

Q: With `O=C1c2cc(-c3ccc(N4CCCC4)cc3)ccc2CN1[C@@H](c1cc2ccccc2[nH]1)c1cc(Cl)ccc1O` [Example 68, (R)-2-((5-chloro-2-hydroxyphenyl)(1H-indole-2-yl)methyl)-6-(4-(pyrrolidine-1-yl)phenyl)isoindolin-1-one] as the compound, how does the IC50 read?
A: 0.25 µM

Q: With `O=C1c2cc(-c3ccc(N4CCNCC4)cc3)ccc2CN1[C@@H](c1cc2ccccc2[nH]1)c1ccccc1O` [Example 31, (R)-2-((2-hydroxyphenyl)(1H-indole-2-yl)methyl)-6-(4-(piperazine-1-yl)phenyl)isoindolin-1-one] as the compound, how does the IC50 read?
A: 0.018 µM

Q: With `O=C1c2cc(C3=CCNCC3)ccc2CN1[C@@H](c1cc2ccccc2[nH]1)c1ccccc1O` [Example 34, (R)-2-((2-hydroxyphenyl)(1H-indole-2-yl)methyl)-6-(1,2,3,6-tetrahydropyridine-4-yl)isoindolin-1-one] as the compound, how does the IC50 read?
A: 2.9 µM

Q: Which IC50 does the source give for `N[C@H]1CCN(c2ccc(-c3ccc4c(c3)C(=O)N([C@@H](c3cc5ccccc5[nH]3)c3cc(F)ccc3O)C4)cc2)C1` [Example 71, 6-(4-((S)-3-aminopyrrolidine-1-yl)phenyl)-2-((R)-(5-fluoro-2-hydroxyphenyl)(1H-indole-2-yl)methyl)isoindolin-1-one] here?
A: 0.045 µM

Q: For `O=C1c2cc(-c3ccc(C4=CCNCC4)cc3)ccc2CN1[C@@H](c1cc2cc(F)ccc2[nH]1)c1cc(F)ccc1O` [Example 52, (R)-2-((5-fluoro-1H-indole-2-yl)(5-fluoro-2-hydroxyphenyl)methyl)-6-(4-(1,2,3,6-tetrahydropyridine-4-yl)phenyl)isoindolin-1-one], which IC50 is on record?
A: > 10 µM

Q: `O=C1c2cc(C3=CCNCC3)ccc2CN1C(c1nc2ccccc2[nH]1)c1cc(F)ccc1O` (centres unmarked) [Example 16] was tested. Which IC50 did it give?
A: 2.9 µM

Q: For `CC(=O)N1CCN(c2ccc(-c3ccc4c(c3)C(=O)N([C@@H](c3cc5ccccc5[nH]3)c3cc(F)ccc3O)C4)cc2)CC1` [Example 54, (R)-6-(4-(4-acetylpiperazine-1-yl)phenyl)-2-((5-fluoro-2-hydroxyphenyl)(1H-indole-2-yl)methyl)-isoindolin-1-one], which IC50 is on record?
A: 0.24 µM

Q: With `O=C1c2cc(-c3ccc(N4CCNCC4)cc3)ccc2CN1C(c1nc2ccccc2[nH]1)c1cc(Cl)ccc1O` (centres unmarked) [Example 11, 2-((1H-benzo[d]imidazole-2-yl)(5-chloro-2-hydroxyphenyl)methyl)-6-(4-(piperazine-1-yl)phenyl)isoindolin-1-one] as the compound, how does the IC50 read?
A: 0.15 µM

Q: For `Cc1ccc(O)c([C@H](c2cc3ccccc3[nH]2)N2Cc3ccccc3C2=O)c1` [Example 20, (R)-2-((2-hydroxy-5-methylphenyl)(1H-indole-2-yl)methyl)isoindolin-1-one], which IC50 is on record?
A: 1.6 µM

Q: `O=C1c2ccccc2CN1C(c1nc2ccc(F)cc2[nH]1)c1ccccc1O` (centres unmarked) [Example 2, 2-((6-fluoro-1H-benzo[d]imidazole-2-yl)(2-hydroxyphenyl)methyl)isoindolin-1-one] was tested. Which IC50 did it give?
A: 2.2 µM

Q: With `O=C1c2cc(C3=CCNCC3)ccc2CN1C(c1nc2ccccc2[nH]1)c1ccccc1O` (centres unmarked) [Example 15, 2-((1H-benzo[d]imidazole-2-yl)(2-hydroxyphenyl)methyl)-6-(1,2,3,6-tetrahydropyridine-4-yl)isoindolin-1-one] as the compound, how does the IC50 read?
A: 8.8 µM

Q: For `O=C1c2cc(C3=CCNCC3)ccc2CN1C(c1nc2ccccc2[nH]1)c1cc(Cl)ccc1O` (centres unmarked) [Example 17], which IC50 is on record?
A: 1.1 µM

Q: `O=C1c2ccccc2CN1[C@@H](c1cc2ccccc2[nH]1)c1ccccc1O` [Example 19, (R)-2-((2-hydroxyphenyl)(1H-indole-2-yl)methyl)isoindolin-1-one] was tested. Which IC50 did it give?
A: > 10 µM

Q: `O=C1c2cc(-c3ccc(-c4ccncc4)cc3)ccc2CN1C(c1nc2ccccc2[nH]1)c1cc(Cl)ccc1O` (centres unmarked) [Example 42, 2-((1H-benzo[d]imidazole-2-yl)(5-chloro-2-hydroxyphenyl)methyl)-6-(4-(pyridine-4-yl)phenyl)isoindolin-1-one] was tested. Which IC50 did it give?
A: 0.45 µM

Q: How did the IC50 turn out when `O=C1c2ccccc2CN1[C@@H](c1cc2ccccc2[nH]1)c1c(O)cccc1F` [Example 25, (R)-2-((2-fluoro-6-hydroxyphenyl)(1H-indole-2-yl)methyl)isoindolin-1-one] was run?
A: > 10 µM

Q: How did the IC50 turn out when `O=C1c2cc(-c3ccc(N4CCN(C5CCNCC5)CC4)cc3)ccc2CN1[C@@H](c1cc2ccccc2[nH]1)c1cc(Cl)ccc1O` [Example 64, (R)-2-((5-chloro-2-hydroxyphenyl)(1H-indole-2-yl)methyl)-6-(4-(4-(piperidine-4-yl)piperazine-1-yl)phenyl)isoindolin-1-one] was run?
A: 0.26 µM

Q: How did the IC50 turn out when `Nc1ccc(-c2ccc3c(c2)C(=O)N(C(c2nc4ccccc4[nH]2)c2cc(Cl)ccc2O)C3)cc1` (centres unmarked) [Example 14, 2-((1H-benzo[d]imidazole-2-yl)(5-chloro-2-hydroxyphenyl)methyl)-6-(4-aminophenyl)isoindolin-1-one] was run?
A: 1.3 µM

Q: For `O=C1c2ccccc2CN1C(c1nc2ccccc2[nH]1)c1ccccc1O` (centres unmarked) [Example 1, 2-((1H-benzo[d]imidazole-2-yl)(2-hydroxyphenyl)methyl)isoindolin-1-one], which IC50 is on record?
A: 1 µM

Q: How did the IC50 turn out when `CN1CCN(c2ccc(-c3ccc4c(c3)C(=O)N([C@@H](c3cc5ccccc5[nH]3)c3cc(Cl)ccc3O)C4)cc2)CC1` [Example 44, (R)-2-((5-chloro-2-hydroxyphenyl)(1H-indole-2-yl)methyl)-6-(4-(4-methylpiperazine-1-yl)phenyl)isoindolin-1-one] was run?
A: 0.19 µM

Q: With `O=C1c2ccccc2CN1C(c1nc2cc(Cl)c(Cl)cc2[nH]1)c1ccccc1O` (centres unmarked) [Example 5, 2-((5,6-dichloro-1H-benzo[d]imidazole-2-yl)(2-hydroxyphenyl)methyl)isoindolin-1-one] as the compound, how does the IC50 read?
A: 7 µM

Q: Which IC50 does the source give for `O=C1c2ccccc2CN1[C@@H](c1cc2ccccc2[nH]1)c1cc(F)c(F)cc1O` [Example 22, (R)-2-((4,5-difluoro-2-hydroxyphenyl)(1H-indole-2-yl)methyl)isoindolin-1-one] here?
A: > 10 µM

Q: How did the IC50 turn out when `O=C1c2ccccc2CN1C(c1nc2cccnc2[nH]1)c1ccccc1O` (centres unmarked) [Example 3, 2-((2-hydroxyphenyl)(3H-imidazo[4,5-b]pyridine-2-yl)methyl)isoindolin-1-one] was run?
A: 2.3 µM
